The term Kd denotes the free concentration of one partner at which half of the binding sites on the other are occupied at equilibrium, for simple one-to-one binding.

“And” between values parts separate entries of the source, which are not always exact repeats. Equal values may be shown once.

One series concerns zebrafish larvae. As to the kind of experiment: Bioconcentration factors (BCF) of PFAS in zebrafish larvae. The following applies: zebrafish larvae, 0.5 µM exposure, 120 hpf, three replicates. As for the experimental part:
Zebrafish embryos were collected immediately after spawning, within 1 h, and subsequently transferred to 24-well plates with 1mL of facility water ( 0.036g sea salt, 0.15g sodium bicarbonate in 2L of reverse osmosis water). […] Three well replicates on the same plate were conducted for each concentration of individual chemical. […] Seven batches of experiments were performed to test all 74 PFAS. DMSO controls were incorporated in each batch of exposure experiments. Three replicates were performed for each treatment group, and 20 embryos were used for each replicate. […] For daily replenishment, 2.5mL of old exposure medium were replaced with freshly prepared medium every 24 h from 24 to 96 h post fertilization (hpf). Hatched or dead embryo numbers were recorded every 24 hpf, after which dead embryos were discarded from the growth media. Dead embryos or unhatched embryos were not used for PFAS measurement because the metabolism of PFAS might have been impacted. Zebrafish larvae collection occurred at 120 hpf. First, the larvae were anesthetized by cooling the plate in ice water (0–4°C) for ∼20 min . Then 8–15 larvae in each well were transferred into 1.5-mL tubes. Exposure media was carefully removed, and then the larvae were weighed (wet weight) after blotting excess water with a paper towel. […] Samples were stored at −80 °C until further chemical analysis was performed. Survival rate and hatching rate were calculated by summarizing all the documented data from the whole treatment duration. […] The exposure experiment of PFOSA was repeated using the same procedure as described above.
Each sample was spiked with 2μL of 0.2μg/mL mass-labeled PFAS mixture. Following this, 500μL of dichloromethane/methanol (2:1, vol/vol) was added to each sample for PFAS extraction. Larvae were then homogenized via ultrasonic probe, followed by 30 min of shaking and 30 min of sonication. Each sample was centrifuged at 14,000×g for 5 min, after which the supernatant was transferred to new tubes. Extraction was repeated once and the two supernatants were combined, evaporated under nitrogen flow, and reconstituted in 200μL of methanol for MS analysis.
Three microliters of each zebrafish extract was applied to a C18 column ( 1.5μm; 2.1mm×50mm; Thermo Scientific) and analyzed using a Vanquish ultra-HPLC system (Thermo Fisher Scientific) coupled to a Q Exactive high-resolution mass spectrometer (Thermo Fisher Scientific). The sampler and column compartments were maintained at 4°C and 40°C, respectively. The aqueous mobile phase solution (A) consisted of water, whereas the organic mobile phase solution (B) consisted of acetonitrile. […] MS data was acquired in full scan mode (100–1000 m/z, 70,000 mass resolution, 3×10^6 maximum ions collected per 100 ms), and tandem MS (MS/MS) data was recorded by all-ion fragmentation (AIF) mode. Negative and positive ion modes were carried out simultaneously at a 10-min method duration. […] An overview of the analyses conducted on the various PFAS is available in Table S2.
GraphPad Prism (version 7.0.4; GraphPad Software) and R studio (version 1.1.456; R Studio Inc.) software was used, and an ANOVA with Dunnett tests was employed to evaluate the statistical significance of the percentage hatched and mortality rate. Exponential regressions were used to determine the relationships between bioconcentration factor (BCF) and binding affinities ( Kd ) to L-FABP.
In the case of `O=S(=O)([O-])C(F)(F)C(F)(F)C(F)(F)C(F)(F)C(F)(F)C(F)(F)F.[K+]` [compound 26, Potassium perfluorohexanesulfonate], the “BCF 0.5µM” value was 55.2382 L/kg.
Regarding `O=C(O)C(F)(F)C(F)(F)C(F)(F)OC(F)(F)F` [compound 28, Perfluoro(4-methoxybutanoic) acid], the “BCF 0.5µM” value came out at 5.238 L/kg.
On the same count and under the same terms, the result for `O=C(O)C(F)(F)OC(F)(F)C(F)(F)OC(F)(F)C(F)(F)OC(F)(F)C(F)(F)C(F)(F)C(F)(F)F` [compound 34, Perfluoro-3,6,9-trioxatridecanoic acid] reads 585 ± 174 L/kg and 584.908 L/kg; that for `OCC(F)(F)C(F)(F)C(F)(F)CO` [compound 35, Hexafluoroamylene glycol], 1.573 L/kg; that for `O=S(=O)(O)C(F)(F)C(F)(F)C(F)(F)C(F)(F)C(F)(F)C(F)(F)C(F)(F)C(F)(F)F` [compound 46, Perfluorooctanesulfonic acid], 270.546 L/kg.
For `O=C(O)C(F)(F)OC(F)(F)C(F)(F)OC(F)(F)F` [compound 54, Perfluoro-3,6-dioxaheptanoic acid], the “BCF 0.5µM” value is given as 2.103 L/kg.
On the same count and under the same terms, the result for `O=S(=O)([O-])C(F)(F)C(F)(F)C(F)(F)C(F)(F)F.[K+]` [compound 57, Potassium perfluorobutanesulfonate] reads 4.038 L/kg.

Still in this series, the particulars now being: zebrafish larvae, 5 µM exposure, 120 hpf, three replicates.
As for `O=S(=O)([O-])C(F)(F)C(F)(F)C(F)(F)C(F)(F)C(F)(F)C(F)(F)F.[K+]` [compound 26, Potassium perfluorohexanesulfonate], the “BCF 5µM” value is given as 30 ± 0.71 L/kg.
For the compound `O=C(O)C(F)(F)C(F)(F)C(F)(F)OC(F)(F)F` [compound 28, Perfluoro(4-methoxybutanoic) acid], the “BCF 5µM” value is recorded as 1.4 ± 0.17 L/kg.
As for `O=C(O)C(F)(F)OC(F)(F)C(F)(F)OC(F)(F)C(F)(F)OC(F)(F)C(F)(F)C(F)(F)C(F)(F)F` [compound 34, Perfluoro-3,6,9-trioxatridecanoic acid], the “BCF 5µM” value was determined as 93 ± 19 L/kg.
Consider `OCC(F)(F)C(F)(F)C(F)(F)CO` [compound 35, Hexafluoroamylene glycol], for which the “BCF 5µM” value is reported as 1.1 ± 0.09 L/kg.
On the same count and under the same terms, under `O=S(=O)(O)C(F)(F)C(F)(F)C(F)(F)C(F)(F)C(F)(F)C(F)(F)C(F)(F)C(F)(F)F` [compound 46, Perfluorooctanesulfonic acid] stands 91 ± 10 L/kg; under `OCC(F)(F)C(F)(F)C(F)(F)C(F)(F)C(F)(F)C(F)(F)C(F)(F)C(F)(F)C(F)(F)C(F)(F)C(F)(F)F` [compound 50, 11:1 Fluorotelomer alcohol], 1.7 ± 0.23 L/kg.
Regarding `O=C(O)C(F)(F)OC(F)(F)C(F)(F)OC(F)(F)F` [compound 54, Perfluoro-3,6-dioxaheptanoic acid], the “BCF 5µM” value amounted to 2.0 ± 0.40 L/kg.
Same read-out and setting: the result for `O=S(=O)([O-])C(F)(F)C(F)(F)C(F)(F)C(F)(F)F.[K+]` [compound 57, Potassium perfluorobutanesulfonate] reads 3.0 ± 0.54 L/kg.

The next series concerns zebrafish embryos.
Experiment: not given
As to conditions: 5μM through 120 hpf, malformation rate.
`O=S(=O)([O-])C(F)(F)C(F)(F)C(F)(F)C(F)(F)C(F)(F)C(F)(F)F.[K+]` [compound 26, Potassium perfluorohexanesulfonate]: the “pericardial oedemata, Mean” value worked out at 0.00%; the “spinal curvature, Mean” value is reported as 0.00%; the “tail dysplasia, Mean” value worked out at 0.00%.
Turning to `O=C(O)C(F)(F)C(F)(F)C(F)(F)OC(F)(F)F` [compound 28, Perfluoro(4-methoxybutanoic) acid], the “pericardial oedemata, Mean” value is recorded as 0.00%; the “spinal curvature, Mean” value stood at 2.22%; the “tail dysplasia, Mean” value is listed as 0.00%.
As to `O=C(O)C(F)(F)OC(F)(F)C(F)(F)OC(F)(F)C(F)(F)OC(F)(F)C(F)(F)C(F)(F)C(F)(F)F` [compound 34, Perfluoro-3,6,9-trioxatridecanoic acid], the “pericardial oedemata, Mean” value was determined as 0.00%; the “spinal curvature, Mean” value was 0.00%; the “tail dysplasia, Mean” value came to 0.00%.
For `OCC(F)(F)C(F)(F)C(F)(F)CO` [compound 35, Hexafluoroamylene glycol], the “pericardial oedemata, Mean” value is on record as 1.11%; the “spinal curvature, Mean” value came out at 4.44%; the “tail dysplasia, Mean” value worked out at 0.00%.
For `O=S(=O)(O)C(F)(F)C(F)(F)C(F)(F)C(F)(F)C(F)(F)C(F)(F)C(F)(F)C(F)(F)F` [compound 46, Perfluorooctanesulfonic acid], the “pericardial oedemata, Mean” value is given as 0.00%; the “spinal curvature, Mean” value was 0.00%; the “tail dysplasia, Mean” value stood at 0.00%.
In the case of `OCC(F)(F)C(F)(F)C(F)(F)C(F)F` [compound 48, 1H,1H,5H-Perfluoropentanol], the “pericardial oedemata, Mean” value is on record as 4.44%; the “spinal curvature, Mean” value came out at 6.67%; the “tail dysplasia, Mean” value stood at 1.11%.
As for `OCC(F)(F)C(F)(F)C(F)(F)C(F)(F)C(F)(F)C(F)(F)C(F)(F)C(F)(F)C(F)(F)C(F)(F)C(F)(F)F` [compound 50, 11:1 Fluorotelomer alcohol], the “pericardial oedemata, Mean” value was found to be 1.11%; the “spinal curvature, Mean” value was 0.00%; the “tail dysplasia, Mean” value was 1.11%.
With `O=C(O)C(F)(F)OC(F)(F)C(F)(F)OC(F)(F)F` [compound 54, Perfluoro-3,6-dioxaheptanoic acid], the “pericardial oedemata, Mean” value came to 1.11%; the “spinal curvature, Mean” value is 0.00%; the “tail dysplasia, Mean” value is on record as 1.11%.
For the compound `O=S(=O)([O-])C(F)(F)C(F)(F)C(F)(F)C(F)(F)F.[K+]` [compound 57, Potassium perfluorobutanesulfonate], the “pericardial oedemata, Mean” value came to 1.11%; the “spinal curvature, Mean” value amounted to 0.00%; the “tail dysplasia, Mean” value was 0.00%.

The series is the same for the next values; noted with them: 5 µM, exposure through 120 hpf.
In the case of `O=S(=O)([O-])C(F)(F)C(F)(F)C(F)(F)C(F)(F)C(F)(F)C(F)(F)F.[K+]` [compound 26, Potassium perfluorohexanesulfonate], the “Mortality (%)” value is given as 3.3%.
The same measure, in the same setting: the result for `O=C(O)C(F)(F)C(F)(F)C(F)(F)OC(F)(F)F` [compound 28, Perfluoro(4-methoxybutanoic) acid] reads 1.1%; that for `O=C(O)C(F)(F)OC(F)(F)C(F)(F)OC(F)(F)C(F)(F)OC(F)(F)C(F)(F)C(F)(F)C(F)(F)F` [compound 34, Perfluoro-3,6,9-trioxatridecanoic acid], 10%.
As for `OCC(F)(F)C(F)(F)C(F)(F)CO` [compound 35, Hexafluoroamylene glycol], the “Mortality (%)” value was 0%.
Same read-out and setting: the result for `O=S(=O)(O)C(F)(F)C(F)(F)C(F)(F)C(F)(F)C(F)(F)C(F)(F)C(F)(F)C(F)(F)F` [compound 46, Perfluorooctanesulfonic acid] reads 2.2%.
With `OCC(F)(F)C(F)(F)C(F)(F)C(F)F` [compound 48, 1H,1H,5H-Perfluoropentanol], the “Mortality (%)” value is given as 1.1%.
On to `OCC(F)(F)C(F)(F)C(F)(F)C(F)(F)C(F)(F)C(F)(F)C(F)(F)C(F)(F)C(F)(F)C(F)(F)C(F)(F)F` [compound 50, 11:1 Fluorotelomer alcohol], for which the “Mortality (%)” value turned out to be 1.1%.
The same measure, in the same setting: under `O=C(O)C(F)(F)OC(F)(F)C(F)(F)OC(F)(F)F` [compound 54, Perfluoro-3,6-dioxaheptanoic acid] stands 2.2%; under `O=S(=O)([O-])C(F)(F)C(F)(F)C(F)(F)C(F)(F)F.[K+]` [compound 57, Potassium perfluorobutanesulfonate], 2.2%.

A further series concerns the target liver fatty acid binding protein (L-FABP).
Experiment: not given
The arrangement: method as in Yang et al. 2020. As to conditions: ref Yang et al. 2020; read-out: Kd (μM), L-FABP binding affinity; cited from earlier work.
Consider `O=S(=O)([O-])C(F)(F)C(F)(F)C(F)(F)C(F)(F)C(F)(F)C(F)(F)F.[K+]` [compound 26, Potassium perfluorohexanesulfonate], for which the Kd was 11.2 µM.
As for `O=C(O)C(F)(F)C(F)(F)C(F)(F)OC(F)(F)F` [compound 28, Perfluoro(4-methoxybutanoic) acid], the Kd is 815 µM.
For the compound `O=C(O)C(F)(F)OC(F)(F)C(F)(F)OC(F)(F)C(F)(F)OC(F)(F)C(F)(F)C(F)(F)C(F)(F)F` [compound 34, Perfluoro-3,6,9-trioxatridecanoic acid], the dissociation constant Kd is 8.22 µM.
Take `O=S(=O)(O)C(F)(F)C(F)(F)C(F)(F)C(F)(F)C(F)(F)C(F)(F)C(F)(F)C(F)(F)F` [compound 46, Perfluorooctanesulfonic acid]: the equilibrium dissociation constant (Kd) was 8.1 µM.
As for `OCC(F)(F)C(F)(F)C(F)(F)C(F)F` [compound 48, 1H,1H,5H-Perfluoropentanol], the Kd is 916 µM.
`O=C(O)C(F)(F)OC(F)(F)C(F)(F)OC(F)(F)F` [compound 54, Perfluoro-3,6-dioxaheptanoic acid]: the Kd was 252 µM.
`O=S(=O)([O-])C(F)(F)C(F)(F)C(F)(F)C(F)(F)F.[K+]` [compound 57, Potassium perfluorobutanesulfonate]: the Kd was 125 µM.

Source of the values: PMC8294803, “A Roadmap to the Structure-Related Metabolism Pathways of Per- and Polyfluoroalkyl Substances in the Early Life Stages of Zebrafish (Danio rerio)” (Environmental Health Perspectives, 2021).
